Results: ChEMBL document CHEMBL1201862, “PubChem BioAssay data set” (2004)
Active and inactive are the calls of the source.

Legend:
[1] = molecular target: T1, Aspartyl aminopeptidase (Plasmodium falciparum 3D7, UniProt Q8I2J3); test: Counterscreen for inhibitors of M1 and M17 aminopeptidases: QFRET-based biochemical high throughput dose response assay for inhibitors of the Plasmodium falciparum M18 Aspartyl Aminopeptidase (PFM18AAP). [Related PubChem assays: 1619 (Screening assay (M17LAP inhibitors).), 1445 (Screening assay (M1AAP inhibitors).)]
T1 sequence (Q8I2J3 whole entry): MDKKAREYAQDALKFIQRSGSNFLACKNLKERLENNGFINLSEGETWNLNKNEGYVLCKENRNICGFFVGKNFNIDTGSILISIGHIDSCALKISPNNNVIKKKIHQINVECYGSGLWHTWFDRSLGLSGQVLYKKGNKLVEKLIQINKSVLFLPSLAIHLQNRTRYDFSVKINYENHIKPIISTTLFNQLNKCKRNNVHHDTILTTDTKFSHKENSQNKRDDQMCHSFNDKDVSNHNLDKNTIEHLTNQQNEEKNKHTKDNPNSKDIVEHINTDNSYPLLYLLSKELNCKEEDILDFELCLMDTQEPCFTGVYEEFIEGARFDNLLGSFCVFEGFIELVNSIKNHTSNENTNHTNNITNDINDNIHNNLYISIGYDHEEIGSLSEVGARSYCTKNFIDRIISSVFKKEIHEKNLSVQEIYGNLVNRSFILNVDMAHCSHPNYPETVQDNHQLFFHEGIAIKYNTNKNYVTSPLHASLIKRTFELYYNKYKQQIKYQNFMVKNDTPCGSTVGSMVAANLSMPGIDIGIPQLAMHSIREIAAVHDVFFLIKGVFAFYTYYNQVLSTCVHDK

[2] = molecular target: T2, Leucine aminopeptidase (Plasmodium falciparum 3D7, UniProt Q8IL11); test: P. falciparum M17LAP inhibitors, primary screen, biochemical, fluorogenic H-Leu-NHMec substrate, 1536-well (AID 1619); assay type: functional
T2 sequence (Q8IL11 whole entry): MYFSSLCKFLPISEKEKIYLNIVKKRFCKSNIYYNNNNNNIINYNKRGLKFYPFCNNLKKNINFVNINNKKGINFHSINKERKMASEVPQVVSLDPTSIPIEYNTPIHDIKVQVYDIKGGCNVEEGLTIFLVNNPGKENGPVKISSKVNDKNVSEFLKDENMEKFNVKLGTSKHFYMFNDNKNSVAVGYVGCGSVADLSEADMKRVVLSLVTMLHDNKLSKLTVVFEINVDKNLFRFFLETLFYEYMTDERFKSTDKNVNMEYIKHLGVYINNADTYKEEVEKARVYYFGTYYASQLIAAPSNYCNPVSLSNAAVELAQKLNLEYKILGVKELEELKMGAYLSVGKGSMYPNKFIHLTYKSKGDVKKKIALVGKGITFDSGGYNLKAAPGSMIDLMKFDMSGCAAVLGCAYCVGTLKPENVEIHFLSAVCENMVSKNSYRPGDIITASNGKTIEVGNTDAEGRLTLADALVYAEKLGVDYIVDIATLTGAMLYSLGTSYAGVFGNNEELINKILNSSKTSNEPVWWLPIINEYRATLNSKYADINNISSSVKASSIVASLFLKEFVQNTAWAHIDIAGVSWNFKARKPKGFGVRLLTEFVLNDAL

[3] = molecular target: Procathepsin L (Homo sapiens, UniProt P07711); test: CTSL1 protease inhibition – biochemical, QFRET, 1536-well, counter-screen for M1/M17 aminopeptidase inhibitor project, dose response (AID 2214)
Chain of Procathepsin L (P07711 whole entry): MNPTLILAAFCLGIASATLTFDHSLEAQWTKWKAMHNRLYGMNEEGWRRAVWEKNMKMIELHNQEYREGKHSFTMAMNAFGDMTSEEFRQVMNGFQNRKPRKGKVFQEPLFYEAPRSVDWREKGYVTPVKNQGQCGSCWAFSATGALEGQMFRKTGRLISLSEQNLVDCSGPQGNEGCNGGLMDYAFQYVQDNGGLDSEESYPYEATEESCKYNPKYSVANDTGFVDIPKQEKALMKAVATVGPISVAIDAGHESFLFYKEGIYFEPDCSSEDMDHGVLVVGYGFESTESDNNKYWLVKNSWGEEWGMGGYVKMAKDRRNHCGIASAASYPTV

[4] = A cytotoxicity screen of small molecule inhibitors of the PhoP region in Salmonella typhi identified in the primary screen. [Related pubchem assays: 1850, 1864, 1985 ]; assay type: functional
[5] = molecular target: T3, Replicative DNA helicase DnaB (Mycobacterium tuberculosis, UniProt P9WMR3); test: DnaB intein splicing inhibitors, dose response, biochemical, cell-free fluorescence (AID 449749); assay type: functional
T3 sequence (P9WMR3 whole entry): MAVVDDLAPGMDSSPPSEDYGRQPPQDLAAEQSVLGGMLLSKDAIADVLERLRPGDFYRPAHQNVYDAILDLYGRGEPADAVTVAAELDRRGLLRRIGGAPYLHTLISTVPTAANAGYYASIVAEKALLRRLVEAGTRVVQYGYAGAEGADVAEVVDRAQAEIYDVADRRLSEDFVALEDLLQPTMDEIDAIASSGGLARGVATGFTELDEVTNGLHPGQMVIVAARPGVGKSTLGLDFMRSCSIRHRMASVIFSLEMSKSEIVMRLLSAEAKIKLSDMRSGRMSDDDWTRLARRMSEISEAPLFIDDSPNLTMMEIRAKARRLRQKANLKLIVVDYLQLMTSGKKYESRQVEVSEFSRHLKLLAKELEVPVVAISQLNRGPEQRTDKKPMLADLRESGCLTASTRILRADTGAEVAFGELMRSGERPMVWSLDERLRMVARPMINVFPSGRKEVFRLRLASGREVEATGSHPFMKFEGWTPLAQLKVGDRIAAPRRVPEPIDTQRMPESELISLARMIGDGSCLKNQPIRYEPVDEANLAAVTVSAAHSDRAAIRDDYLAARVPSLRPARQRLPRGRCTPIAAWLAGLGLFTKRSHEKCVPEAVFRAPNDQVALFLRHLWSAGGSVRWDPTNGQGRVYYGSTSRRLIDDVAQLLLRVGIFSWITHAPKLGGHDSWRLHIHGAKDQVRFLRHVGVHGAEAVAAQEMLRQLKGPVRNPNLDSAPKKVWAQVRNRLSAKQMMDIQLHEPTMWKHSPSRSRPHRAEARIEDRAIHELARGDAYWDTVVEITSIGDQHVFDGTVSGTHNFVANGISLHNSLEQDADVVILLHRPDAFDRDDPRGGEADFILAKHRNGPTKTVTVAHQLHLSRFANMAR

[6] = molecular target: Glyceraldehyde-3-phosphate dehydrogenase (Homo sapiens, UniProt P04406)
Chain of Glyceraldehyde-3-phosphate dehydrogenase (P04406 whole entry): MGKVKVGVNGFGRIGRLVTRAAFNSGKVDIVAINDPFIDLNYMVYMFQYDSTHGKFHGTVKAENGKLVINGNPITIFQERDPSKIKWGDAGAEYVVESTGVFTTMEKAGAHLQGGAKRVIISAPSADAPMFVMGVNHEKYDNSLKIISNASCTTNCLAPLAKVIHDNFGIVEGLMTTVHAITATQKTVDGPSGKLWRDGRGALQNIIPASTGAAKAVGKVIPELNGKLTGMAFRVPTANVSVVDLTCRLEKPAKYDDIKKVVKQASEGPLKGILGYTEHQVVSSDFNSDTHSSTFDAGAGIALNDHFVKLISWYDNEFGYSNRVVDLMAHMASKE

[7] = molecular target: Alkaline phosphatase, placental type (Homo sapiens, UniProt P05187); test: human placental alkaline phosphatase inhibition – biochemical, luminescence, confirmation (AID 1512); assay type: functional
Chain of Alkaline phosphatase, placental type (P05187 whole entry): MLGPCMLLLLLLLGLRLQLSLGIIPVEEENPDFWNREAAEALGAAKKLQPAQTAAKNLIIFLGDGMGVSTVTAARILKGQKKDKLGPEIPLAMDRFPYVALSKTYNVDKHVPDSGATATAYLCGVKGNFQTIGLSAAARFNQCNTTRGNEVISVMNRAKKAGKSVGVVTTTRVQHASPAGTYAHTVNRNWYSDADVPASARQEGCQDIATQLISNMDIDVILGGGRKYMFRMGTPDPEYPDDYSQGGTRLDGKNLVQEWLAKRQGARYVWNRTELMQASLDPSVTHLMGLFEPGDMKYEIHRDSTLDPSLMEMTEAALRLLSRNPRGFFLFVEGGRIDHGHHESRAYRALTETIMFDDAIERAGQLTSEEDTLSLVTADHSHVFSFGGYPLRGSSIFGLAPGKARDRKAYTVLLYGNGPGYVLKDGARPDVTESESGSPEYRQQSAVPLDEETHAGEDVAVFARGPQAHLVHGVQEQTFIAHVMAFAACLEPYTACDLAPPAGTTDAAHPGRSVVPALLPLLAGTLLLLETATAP

[8] = molecular target: T4, Protein RecA (Mycobacterium tuberculosis, UniProt P9WHJ3); test: Fluorescence Cell-Free Homogeneous Dose Retest to Identify Inhibitors of RecA-Intein Splicing Activity. [Related pubchem assays (depositor defined):AID2097, AID2223, AID489010, AID492950]; assay type: functional
T4 sequence (P9WHJ3 whole entry): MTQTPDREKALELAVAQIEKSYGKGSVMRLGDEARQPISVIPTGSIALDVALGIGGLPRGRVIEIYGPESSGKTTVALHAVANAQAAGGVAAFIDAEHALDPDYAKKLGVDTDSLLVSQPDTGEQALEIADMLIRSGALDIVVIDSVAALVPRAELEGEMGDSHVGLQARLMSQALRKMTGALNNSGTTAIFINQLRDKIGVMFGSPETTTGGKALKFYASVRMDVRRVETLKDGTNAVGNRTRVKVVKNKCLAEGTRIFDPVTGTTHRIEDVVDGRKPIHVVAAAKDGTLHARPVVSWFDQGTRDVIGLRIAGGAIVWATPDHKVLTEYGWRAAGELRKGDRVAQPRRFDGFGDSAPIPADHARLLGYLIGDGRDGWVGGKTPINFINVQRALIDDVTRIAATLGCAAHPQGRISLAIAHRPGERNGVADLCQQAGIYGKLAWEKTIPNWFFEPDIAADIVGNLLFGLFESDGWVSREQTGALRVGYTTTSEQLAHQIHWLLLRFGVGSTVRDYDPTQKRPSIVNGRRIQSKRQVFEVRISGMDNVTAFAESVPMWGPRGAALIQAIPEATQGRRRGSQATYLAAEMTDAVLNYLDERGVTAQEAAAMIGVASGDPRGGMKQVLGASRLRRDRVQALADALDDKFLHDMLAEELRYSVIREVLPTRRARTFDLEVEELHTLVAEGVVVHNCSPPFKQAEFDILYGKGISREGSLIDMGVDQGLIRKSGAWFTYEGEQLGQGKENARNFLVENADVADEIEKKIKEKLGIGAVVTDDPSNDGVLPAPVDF

[9] = molecular target: T5, Alkaline phosphatase, tissue-nonspecific isozyme (Homo sapiens, UniProt P05186); test: potency against alkaline phosphatase TNAP – biochemical, luminescent, dose response, SAR follow-up (AID 1056)
T5 sequence (P05186 whole entry): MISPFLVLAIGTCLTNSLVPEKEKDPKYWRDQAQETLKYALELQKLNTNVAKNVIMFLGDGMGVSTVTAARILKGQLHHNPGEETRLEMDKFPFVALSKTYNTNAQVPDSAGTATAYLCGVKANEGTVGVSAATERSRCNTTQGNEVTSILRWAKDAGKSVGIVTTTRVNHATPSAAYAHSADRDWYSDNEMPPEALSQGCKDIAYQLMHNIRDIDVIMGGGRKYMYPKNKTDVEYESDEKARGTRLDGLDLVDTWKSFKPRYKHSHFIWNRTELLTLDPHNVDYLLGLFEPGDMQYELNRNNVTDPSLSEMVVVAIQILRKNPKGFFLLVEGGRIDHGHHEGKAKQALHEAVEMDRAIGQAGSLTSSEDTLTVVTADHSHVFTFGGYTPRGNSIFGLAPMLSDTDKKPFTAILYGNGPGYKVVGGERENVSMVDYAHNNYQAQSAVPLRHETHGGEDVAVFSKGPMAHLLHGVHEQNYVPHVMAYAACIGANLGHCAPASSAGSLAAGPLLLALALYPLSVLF

[10] = system: Streptococcus sp. 'group A'; test: Streptococcus pyogenes SK(-)GAS viability under kanamycin – luminescence, BacTiterGlo, confirmation, counter-screen for streptokinase expression inhibitor project, dose response (AID 1900); assay type: functional, organism-based
[11] = system: Streptococcus; test: GAS UMAA2166 growth inhibition – luminescence, BacTiterGlo, counter-screen for streptokinase expression inhibitor project, dose response (AID 1915); assay type: functional, organism-based;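 note: potency for reduction of bacterial viability or growth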
[12] = viability loss of HPDE-C7K cells – cell-based, fluorescence, HTS, primary screen (AID 431); assay type: functional; conditions: Homo sapiens
[13] = HPDE-C7 pancreatic duct cell viability loss – fluorescence, HTS (AID 430); assay type: functional, cell-based; conditions: Homo sapiens
[14] = cells; assay type: functional
[15] = fluconazole-exposed Candida albicans growth modulators – fluorescence, retest, confirmation (AID 2467); assay type: functional, cell-based
[16] = NIH-3T3 fibroblast cytotoxicity, dose response, cytotoxicity control, cell-based, fluorescence, Alamar Blue, secondary assay (AID 2327); assay type: functional;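 note: NIH-3T3 mouse fibroblasts cultured with fluconazole at 8 µg/mL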
[17] = molecular target: Cytochrome P450 2C9 (Homo sapiens, UniProt P11712)
Chain of Cytochrome P450 2C9 (P11712 whole entry): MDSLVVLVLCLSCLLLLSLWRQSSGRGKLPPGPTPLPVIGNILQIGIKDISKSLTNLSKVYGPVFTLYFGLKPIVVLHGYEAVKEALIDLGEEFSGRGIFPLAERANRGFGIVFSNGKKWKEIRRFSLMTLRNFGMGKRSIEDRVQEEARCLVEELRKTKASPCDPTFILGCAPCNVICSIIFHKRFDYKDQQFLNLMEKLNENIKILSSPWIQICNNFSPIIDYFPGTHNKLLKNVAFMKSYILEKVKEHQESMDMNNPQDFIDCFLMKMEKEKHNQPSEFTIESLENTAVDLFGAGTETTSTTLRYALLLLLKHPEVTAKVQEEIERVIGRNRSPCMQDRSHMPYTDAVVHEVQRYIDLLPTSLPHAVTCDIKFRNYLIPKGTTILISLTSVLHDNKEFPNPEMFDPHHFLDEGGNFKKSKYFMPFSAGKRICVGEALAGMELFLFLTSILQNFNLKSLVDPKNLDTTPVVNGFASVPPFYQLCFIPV

[18] = molecular target: Polyadenylate-binding protein 1 (Homo sapiens, UniProt P11940); test: blockers of PABP interaction with poly(A) – biochemical, fluorescence polarization, […] (AID 2014)
Chain of Polyadenylate-binding protein 1 (P11940 whole entry): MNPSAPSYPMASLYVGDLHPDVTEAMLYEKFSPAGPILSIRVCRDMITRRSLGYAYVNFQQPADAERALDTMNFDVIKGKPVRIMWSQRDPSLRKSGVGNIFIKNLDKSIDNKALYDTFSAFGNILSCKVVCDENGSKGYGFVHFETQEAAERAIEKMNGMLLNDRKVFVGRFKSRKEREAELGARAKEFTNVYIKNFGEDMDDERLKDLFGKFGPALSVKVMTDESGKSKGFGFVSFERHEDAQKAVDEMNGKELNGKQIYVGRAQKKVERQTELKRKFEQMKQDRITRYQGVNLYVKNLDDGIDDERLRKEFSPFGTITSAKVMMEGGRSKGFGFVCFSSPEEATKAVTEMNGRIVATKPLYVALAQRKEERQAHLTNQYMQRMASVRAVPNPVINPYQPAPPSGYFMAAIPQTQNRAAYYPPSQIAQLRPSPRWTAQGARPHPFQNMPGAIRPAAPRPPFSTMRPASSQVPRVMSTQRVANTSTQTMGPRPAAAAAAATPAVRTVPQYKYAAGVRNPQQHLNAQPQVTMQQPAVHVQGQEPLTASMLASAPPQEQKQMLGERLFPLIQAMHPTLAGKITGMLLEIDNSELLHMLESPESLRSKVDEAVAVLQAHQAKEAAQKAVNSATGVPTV

[19] = molecular target: Cytochrome P450 2D6 (Homo sapiens, UniProt P10635);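 note: CYP2D6 member of a cytochrome P450 panel assay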
Chain of Cytochrome P450 2D6 (P10635 whole entry): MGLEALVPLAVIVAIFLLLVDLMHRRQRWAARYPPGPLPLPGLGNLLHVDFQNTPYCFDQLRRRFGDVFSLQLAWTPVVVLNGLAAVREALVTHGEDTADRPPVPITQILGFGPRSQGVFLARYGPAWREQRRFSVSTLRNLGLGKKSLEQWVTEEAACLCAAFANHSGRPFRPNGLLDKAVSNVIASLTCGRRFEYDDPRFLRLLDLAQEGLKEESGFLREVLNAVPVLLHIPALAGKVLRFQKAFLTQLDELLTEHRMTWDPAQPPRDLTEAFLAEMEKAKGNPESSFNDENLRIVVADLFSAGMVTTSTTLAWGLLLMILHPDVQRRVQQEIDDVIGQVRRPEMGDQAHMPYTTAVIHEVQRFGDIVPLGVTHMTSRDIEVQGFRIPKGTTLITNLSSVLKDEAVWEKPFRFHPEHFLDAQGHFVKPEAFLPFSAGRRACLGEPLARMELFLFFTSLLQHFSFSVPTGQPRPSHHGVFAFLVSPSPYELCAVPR

[20] = molecular target: Cytochrome P450 2C19 (Homo sapiens, UniProt P33261); test: Cytochrome panel assay with activity outcomes. Panel member name: p450-cyp2c19 Compounds with AC50 equal or less than 10 uM are considered active; assay type: functional; conditions: read-out: AC50
Chain of Cytochrome P450 2C19 (P33261 whole entry): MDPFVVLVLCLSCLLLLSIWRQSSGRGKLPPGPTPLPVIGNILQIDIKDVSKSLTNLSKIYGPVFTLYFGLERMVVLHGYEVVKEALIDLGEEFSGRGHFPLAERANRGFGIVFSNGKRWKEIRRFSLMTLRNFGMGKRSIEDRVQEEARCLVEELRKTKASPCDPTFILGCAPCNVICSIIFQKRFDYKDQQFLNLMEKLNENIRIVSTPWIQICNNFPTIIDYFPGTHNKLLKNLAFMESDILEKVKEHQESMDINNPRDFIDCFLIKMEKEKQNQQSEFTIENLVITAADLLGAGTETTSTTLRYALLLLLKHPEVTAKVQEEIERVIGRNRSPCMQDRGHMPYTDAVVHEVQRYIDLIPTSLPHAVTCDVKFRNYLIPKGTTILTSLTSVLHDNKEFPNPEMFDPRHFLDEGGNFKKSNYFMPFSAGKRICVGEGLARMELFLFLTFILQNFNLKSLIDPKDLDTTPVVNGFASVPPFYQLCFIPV

[21] = molecular target: Eukaryotic translation initiation factor 4H (Homo sapiens, UniProt Q15056); test: eIF4H binding inhibition – biochemical, uHTS, fluorescence polarization, translation initiation inhibitor project, primary screen (AID 2012)
[22] = molecular target: Cytochrome P450 3A4 (Homo sapiens, UniProt P08684); conditions: Potency;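 note: confirmatory qHTS run detecting inhibitors and substrates of CYP3A4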
Chain of Cytochrome P450 3A4 (P08684 whole entry): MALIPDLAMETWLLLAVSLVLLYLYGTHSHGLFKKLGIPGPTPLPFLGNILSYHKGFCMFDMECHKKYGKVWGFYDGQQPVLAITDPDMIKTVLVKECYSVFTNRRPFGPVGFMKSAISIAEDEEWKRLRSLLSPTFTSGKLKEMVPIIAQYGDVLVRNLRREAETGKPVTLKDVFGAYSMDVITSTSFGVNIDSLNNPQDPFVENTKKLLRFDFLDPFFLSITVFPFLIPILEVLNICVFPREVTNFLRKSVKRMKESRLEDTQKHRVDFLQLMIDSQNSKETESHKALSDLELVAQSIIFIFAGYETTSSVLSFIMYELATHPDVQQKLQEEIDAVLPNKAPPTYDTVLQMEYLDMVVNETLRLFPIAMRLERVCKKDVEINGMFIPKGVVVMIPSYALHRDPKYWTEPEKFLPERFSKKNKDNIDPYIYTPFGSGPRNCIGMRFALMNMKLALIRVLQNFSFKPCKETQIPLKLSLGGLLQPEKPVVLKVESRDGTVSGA

## O=C(O)C1CC=CCC1C(=O)Nc1ccc(Oc2ccc(Cl)cc2)cc1 (stereo not given)
[1]
  IC50: > 73.5 µM (not active)
[2]
  IC50: 1.02 µM (active)
[3]
  IC50: > 59.6 µM (not active)

## O=C(CN1C2=NCCN2c2ccccc21)c1ccc2c(c1)OCO2
[4]
  EC50: > 50 µM (active)

## O=C(O)CCCCCNC(=O)Nc1ccc2c(c1)OCCO2
[1]
  IC50: > 73.5 µM (not active)
[2]
  IC50: 5.51 µM (active)
[3]
  IC50: > 59.6 µM (not active)

## Oc1cc(-c2cccc3ccccc23)[nH]n1
[5]
  AC50: 2.39 µM (active)
[6]
  IC50: > 100 µM (not active)
[7]
  IC50: > 10 µM (inactive)
[1]
  IC50: > 73.5 µM (not active)
[2]
  IC50: 2.9 µM (active)
[8]
  EC50: 0.834 µM (active)
[9]
  IC50: 3.87 µM (active)
[3]
  IC50: > 59.6 µM (not active)

## N#Cc1c(NC(=O)CSc2n[nH]c(Cc3ccccc3)n2)oc(-c2ccccc2)c1-c1ccccc1
[10]
  EC50: 4.97 µM (active)
[11]
  EC50: 36.5 µM (active)
[12]
  EC50: 5.24 µM (active)
[13]
  EC50: 4.13 µM (active)

## CCCCCCCC(=O)N/N=C/c1ccc([N+](=O)[O-])o1
[14]
  IC50: 2.63 µM (active)
[15]
  EC50: 2.88 µM (active)
[16]
  EC50: > 160 µM (inactive)
[4]
  EC50: > 50 µM (active)

## CC1=C(C(=O)OCc2ccccc2)C(c2ccccc2)NC(=O)N1CCCCCC(=O)O (stereo not given)
[17]
  AC50: 25.1 µM (inconclusive)
[18]
  IC50: 29.9 µM (active)
[19]
  AC50: 39.8 µM (inconclusive)
[20]
  AC50: 39.8 µM (inconclusive)
[21]
  IC50: 78.5 µM (active)

## Cc1cc(C)c(N)cc1C
[22]
  AC50: 39.8 µM (inconclusive)

## O=c1c(-c2cc(O)c(O)c(O)c2)coc2cc(O)c(O)c(O)c12 [IRIGENOL]
[22]
  AC50: 25.1 µM (inconclusive)
